According to ChEMBL document CHEMBL3611997, “4-Fluoro-3',4',5'-trimethoxychalcone as a new anti-invasive agent. From discovery to initial validation in an in vivo metastasis model” (Eur J Med Chem, 2015):
In brackets after ≈: the same amount, converted by molar mass. Activity calls are given as the source filed them. No cut-off for these calls is given here.

Assays:
SK-OV-3 [1] = experiment: Antiinvasive activity in human in SKOV3 cells assessed as reduction of amount of cells present on filter at 10 umol/L after 24 hrs by matrigel invasion assay (reference value: 100%); format: functional; design: scale not given: the % may be the effect or the level left
[2] = Cytotoxicity against human MCF7/6 cells assessed as reduction of mitochondrial activity at 0.01 to 100 umol/L after 6 days by MTT assay; format: cell-based; conditions: mcf7/6, 144 h
MDA-MB-231 [3] = experiment: Cytotoxicity against human MDA-MB-231 cells expressing GFP assessed as reduction of mitochondrial activity at 0.01 to 100 umol/L after 6 days by MTT assay; format: cell-based; conditions: mda-mb-231, 144 h
Mus musculus [4] = experiment: Toxicity in Swiss nu/nu mouse assessed as hematological anomalies by measuring WBC count at 160 mg/kg, ip administered three times a week for two-week period measured on day 15 (reference value: 2420 +/- 782 /microL); format: organism-based; conditions: in vivo
[5] = Half life of the compound in simulated intestinal fluid at 1 umol/L; format: ADME
[6] = Protein binding in human plasma assessed as recovery at 10 umol/L; format: ADME, cell-free; conditions: read-out: Drug recovery
[7] = Antiinvasive activity in human in BLM cells assessed as reduction of amount of cells present on filter at 100 umol/L after 24 hrs by matrigel invasion assay (reference value: 100%); format: functional; design: scale not given: the % may be the effect or the level left
[8] = Aqueous solubility of the compound in simulated intestinal fluid at 200 umol/L; format: physicochemical
[9] = Antiinvasive activity in human in BLM cells assessed as reduction of amount of cells present on filter at 0.1 umol/L after 24 hrs by matrigel invasion assay (reference value: 100%); format: functional; design: scale not given: the % may be the effect or the level left
Mus musculus [10] = experiment: Toxicity in Swiss nu/nu mouse assessed as macroscopic anomalies at 1.6 to 160 mg/kg, ip administered three times a week for two-week period measured on day 15; format: organism-based; conditions: in vivo
[11] = Protein binding in human plasma at 10 umol/L; format: ADME, cell-free; conditions: read-out: PPB (converted)
Mus musculus [12] = experiment: Toxicity in Swiss nu/nu mouse assessed as hematological anomalies by measuring AST level at 1.6 mg/kg, ip administered three times a week for two-week period measured on day 15 (reference value: 254.2 +/- 144.6 IU/L); format: organism-based; conditions: in vivo
CYP2D6 = CYP2D6 (Homo sapiens, UniProt P10635); experiment: Inhibition of CYP2D6 (unknown origin) at 10 umol/L; format: ADME
[13] = Permeability across basolateral to apical side of human Caco2 cells assessed as compound recovery at 10 umol/L at pH 7.4; format: ADME, cell-based; conditions: Caco-2, pH 7.4, read-out: Drug recovery
Homo sapiens = species on record: Homo sapiens; experiment: Displacement of [3H]-quinuclydinyl benzylate from muscarinic receptor (unknown origin) at 10 umol/L
hERG = hERG (Homo sapiens, UniProt Q12809); experiment: Inhibition of human ERG assessed as reduction of tail current at 10 umol/L
MDA-MB-231 [14] = experiment: Cytotoxicity against human MDA-MB-231 cells expressing GFP assessed as reduction of cellular protein content at 0.01 to 100 umol/L after 6 days by SRB assay; format: cell-based; conditions: mda-mb-231, 144 h
MCF10 = experiment: Cytotoxicity against human MCF10 cells assessed as reduction of cellular protein content at 0.01 to 100 umol/L after 6 days by SRB assay; format: cell-based; conditions: mcf10, 144 h
Mus musculus [15] = experiment: Toxicity in human MCF7/6 cells xenografted Swiss nu/nu mouse assessed as macroscopic metastases at 160 mg/kg, ip administered thrice a week measured after 3 months; format: organism-based; conditions: in vivo, 2191.5 h
[16] = Octanol-phosphate buffer partition coefficient, log D of the compound at 100 umol/L at pH 7.4; format: physicochemical
Mus musculus [17] = experiment: Toxicity in Swiss nu/nu mouse assessed as hematological anomalies by measuring creatinine level at 160 mg/kg, ip administered three times a week for two-week period measured on day 15 (reference value: 0.29 +/- 0.02 mg/dL); format: organism-based; conditions: in vivo
[18] = Permeability across apical to basolateral side of human Caco2 cells at 10 umol/L at pH 7.4; format: ADME, cell-based; conditions: Caco-2, pH 7.4, read-out: permeability
[19] = Half life of the compound in simulated gastric fluid at 1 umol/L; format: ADME
[20] = Antiinvasive activity in human MCF7/6 cells assessed as Cmin for progressive occupation of chicken precultured heart tissue fragments after 8 days by chick heart invasion assay; format: functional
[21] = Aqueous solubility of the compound in simulated gastric fluid at 200 umol/L; format: physicochemical
[22] = Intrinsic clearance in Sprague-Dawley rat liver microsomes at 0.1 umol/L; format: ADME; conditions: read-out: CLH
MCF7/6 = experiment: Antiinvasive activity in human MCF7/6 cells assessed as Cmin for progressive occupation of chicken precultured heart tissue fragments at 0.01 to 10 umol/L after 8 days by chick heart invasion assay; format: functional, cell-based
Mus musculus [23] = experiment: Toxicity in Swiss nu/nu mouse assessed as hematological anomalies by measuring ALT level at 16 mg/kg, ip administered three times a week for two-week period measured on day 15 (reference value: 29.6 +/- 5.6 IU/L); format: organism-based; conditions: in vivo
SK-OV-3 [24] = experiment: Antiinvasive activity in human in SKOV3 cells assessed as reduction of amount of cells present on filter at 1 umol/L after 24 hrs by matrigel invasion assay (reference value: 100%); format: functional; design: scale not given: the % may be the effect or the level left
[25] = Antiinvasive activity in human in BLM cells assessed as reduction of amount of cells present on filter at 1 umol/L after 24 hrs by matrigel invasion assay (reference value: 100%); format: functional; design: scale not given: the % may be the effect or the level left
SK-OV-3 [26] = experiment: Antiinvasive activity in human in SKOV3 cells assessed as reduction of amount of cells present on filter at 0.1 umol/L after 24 hrs by matrigel invasion assay (reference value: 100%); format: functional; design: scale not given: the % may be the effect or the level left
MDA-MB-231 [27] = experiment: Cytotoxicity against human MDA-MB-231 cells expressing GFP-Luc assessed as reduction of mitochondrial activity at 0.01 to 100 umol/L after 6 days by MTT assay; format: cell-based; conditions: mda-mb-231, 144 h
[28] = Cytotoxicity against human BLM cells assessed as reduction of mitochondrial activity at 0.01 to 1 umol/L after 24 hrs by MTT assay; format: cell-based
Mus musculus [29] = experiment: Toxicity in Swiss nu/nu mouse assessed as hematological anomalies by measuring AST level at 160 mg/kg, ip administered three times a week for two-week period measured on day 15 (reference value: 254.2 +/- 144.6 IU/L); format: organism-based; conditions: in vivo
Mus musculus [30] = experiment: Toxicity in Swiss nu/nu mouse assessed as histological anomalies in spleen at 1.6 to 160 mg/kg, ip administered three times a week for two-week period measured on day 15; format: organism-based; conditions: in vivo
Mus musculus [31] = experiment: Toxicity in Swiss nu/nu mouse assessed as hematological anomalies by measuring AST level at 16 mg/kg, ip administered three times a week for two-week period measured on day 15 (reference value: 254.2 +/- 144.6 IU/L); format: organism-based; conditions: in vivo
[32] = Aqueous solubility of the compound in PBS at pH 7.4 at 200 umol/L; format: physicochemical
[33] = Cytotoxicity against human MCF7/6 cells assessed as reduction of mitochondrial activity at 10 to 100 umol/L after 8 days by MTT assay; format: cell-based; conditions: mcf7/6, 192 h
Mus musculus [34] = experiment: Toxicity in Swiss nu/nu mouse assessed as histological anomalies in kidney at 1.6 to 160 mg/kg, ip administered three times a week for two-week period measured on day 15; format: organism-based; conditions: in vivo

CYP2D6, sequence (P10635 whole entry): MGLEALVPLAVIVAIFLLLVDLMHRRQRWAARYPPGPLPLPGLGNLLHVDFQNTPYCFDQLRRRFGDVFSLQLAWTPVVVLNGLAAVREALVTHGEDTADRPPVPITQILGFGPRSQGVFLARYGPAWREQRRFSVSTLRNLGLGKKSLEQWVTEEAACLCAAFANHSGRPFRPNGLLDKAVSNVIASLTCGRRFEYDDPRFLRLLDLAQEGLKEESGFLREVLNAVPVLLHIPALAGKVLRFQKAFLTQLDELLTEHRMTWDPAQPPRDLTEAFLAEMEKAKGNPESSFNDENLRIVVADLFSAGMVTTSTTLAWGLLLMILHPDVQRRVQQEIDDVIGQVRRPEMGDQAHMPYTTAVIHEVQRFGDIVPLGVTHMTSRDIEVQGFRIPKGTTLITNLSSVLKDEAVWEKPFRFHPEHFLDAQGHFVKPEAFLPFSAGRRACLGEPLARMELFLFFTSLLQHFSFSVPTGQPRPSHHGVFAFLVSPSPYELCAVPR
hERG, sequence (Q12809 whole entry): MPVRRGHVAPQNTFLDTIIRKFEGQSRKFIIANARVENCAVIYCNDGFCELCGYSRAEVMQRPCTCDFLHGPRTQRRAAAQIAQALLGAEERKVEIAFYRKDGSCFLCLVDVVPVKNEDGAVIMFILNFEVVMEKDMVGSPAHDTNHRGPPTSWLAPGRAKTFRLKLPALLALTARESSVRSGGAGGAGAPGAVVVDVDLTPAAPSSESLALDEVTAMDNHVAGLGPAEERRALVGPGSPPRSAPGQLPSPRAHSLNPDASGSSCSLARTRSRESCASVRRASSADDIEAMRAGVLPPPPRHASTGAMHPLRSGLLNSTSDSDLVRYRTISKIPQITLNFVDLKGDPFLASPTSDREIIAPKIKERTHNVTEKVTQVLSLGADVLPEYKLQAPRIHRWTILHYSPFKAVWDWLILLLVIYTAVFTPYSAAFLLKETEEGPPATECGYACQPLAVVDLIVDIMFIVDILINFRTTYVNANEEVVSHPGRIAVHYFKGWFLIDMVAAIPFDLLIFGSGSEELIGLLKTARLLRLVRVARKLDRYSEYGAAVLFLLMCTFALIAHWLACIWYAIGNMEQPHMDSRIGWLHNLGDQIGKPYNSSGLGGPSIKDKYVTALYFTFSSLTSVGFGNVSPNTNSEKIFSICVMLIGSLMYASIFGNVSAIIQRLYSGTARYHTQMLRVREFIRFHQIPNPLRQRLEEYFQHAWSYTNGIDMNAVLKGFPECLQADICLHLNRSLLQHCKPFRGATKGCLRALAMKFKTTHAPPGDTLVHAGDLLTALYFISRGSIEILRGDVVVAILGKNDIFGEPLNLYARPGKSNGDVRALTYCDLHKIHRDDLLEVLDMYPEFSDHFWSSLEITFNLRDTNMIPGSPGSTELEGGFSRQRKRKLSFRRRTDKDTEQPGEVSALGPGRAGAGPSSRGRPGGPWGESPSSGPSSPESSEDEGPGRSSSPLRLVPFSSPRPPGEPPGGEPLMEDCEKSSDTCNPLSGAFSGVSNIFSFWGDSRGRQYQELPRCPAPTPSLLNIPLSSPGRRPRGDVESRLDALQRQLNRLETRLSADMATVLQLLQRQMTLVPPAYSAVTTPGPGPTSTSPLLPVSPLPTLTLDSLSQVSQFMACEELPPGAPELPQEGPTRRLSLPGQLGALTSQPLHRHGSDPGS

With `COc1cc(C(=O)/C=C/c2ccc(F)cc2)cc(OC)c1OC` the Activity (SK-OV-3 [1]) was 12%, the Activity [2] was “Non-toxic” and the Activity (MDA-MB-231 [3]) was “Non-toxic”. The Activity (Mus musculus [4]) was 3180 µL⁻¹, the half-life at 1 µM [5] was > 4 h and the recovery at 10 µM [6] was 90%. For the same compound, the Activity [7] was 2%, the solubility at 200 µM [8] was 7.9 µM (≈ 2.5 µg/mL) and the Activity [9] was 20%. For the same compound, the Activity (Mus musculus [10]) was “Non-toxic”, the fraction unbound at 10 µM [11] was 0.01 and the Activity (Mus musculus [12]) was 135.5 IU/L. The inhibition at 10 µM (CYP2D6) was 18.9%, the recovery at 10 µM [13] was 66% and the inhibition (Homo sapiens) was -5.1%. The inhibition at 10 µM (hERG) was 28.3%, the Activity (MDA-MB-231 [14]) was “Non-toxic” and the Activity (MCF10) was “Non-toxic”. For the same compound, the Activity (Mus musculus [15]) was “Non-toxic”, the logD at 100 µM [16] was 3.85 and the Activity (Mus musculus [17]) was 0.28 mg/dL. For the same compound, the Papp A→B at 10 µM [18] was 10.4 ×10⁻⁶ cm/s, the half-life at 1 µM [19] was > 1 h and the Cmin [20] was 0.01 µmol/L. For the same compound, the solubility at 200 µM [21] was 9.1 µM (≈ 2.88 µg/mL), the microsomal CLint at 0.1 µM [22] was 339 µL/min/mg and the Activity (MCF7/6) was “Active”. The Activity (Mus musculus [23]) was 28.1 IU/L, the Activity (SK-OV-3 [24]) was 18% and the Activity [25] was 33%. The Activity (SK-OV-3 [26]) was 85%, the Activity (MDA-MB-231 [27]) was “Non-toxic” and the Activity [28] was “Non-toxic”. For the same compound, the Activity (Mus musculus [29]) was 207.8 IU/L, the Activity (Mus musculus [30]) was “Non-toxic” and the Activity (Mus musculus [31]) was 167.5 IU/L. For the same compound, the solubility at 200 µM [32] was 2.4 µM (≈ 0.759 µg/mL), the Activity [33] was “Toxic” and the Activity (Mus musculus [34]) was “Non-toxic”.
